Measurements from patent publication US20230279020A9, “CARM1 INHIBITORS AND USES THEREOF” (Epizyme, Inc., priority 2013, published 2023).

Molecular target: Human CARM1 (PRMT4) (Homo sapiens (Human), UniProt Q86X55)
Experiment: CARM1 enzyme assay on peptide substrate (3H-SAM Flashplate)
Details: Biochemical potencies, classification codes; read-out: Biochem IC50
Text: S-adenosylmethionine (SAM), S-adenosylhomocysteine (SAH), bicine, Tween20, dimethylsulfoxide (DMSO), bovine skin gelatin (BSG), sodium butyrate and Tris(2-carboxyethyl)phosphine hydrochloride solution (TCEP) were purchased from Sigma-Aldrich at the highest level of purity possible. ^3H-SAM was purchase from American Radiolabeled Chemicals with a specific activity of 80 Ci/mmol. 384-well streptavidin Flashplates were purchased from PerkinElmer.
Peptide representative of human histone H3 residues 16-30 was synthesized with an N-terminal linker-affinity tag motif and a C-terminal amide cap by 21st Century Biochemicals. […] The sequence was Biot-Ahx-[…]-amide and contained a monomethylated arginine at position 26 (SEQ ID NO.:1).
The gene sequence encoding isoform1 containing a deletion of amino acids 539-561 was amplified subsequently and subcloned into pFastBacMam (Viva Biotech).
Recombinant baculovirus were generated according to Bac-to-Bac kit instructions (Life Technologies). Protein over-expression was accomplished by infecting exponentially growing HEK 293F cell culture at 1.3×10^6cell/ml with virus (MOI=10) in the presence of 8 mM sodium butyrate. Infections were carried out at 37° C. for 48 hours, harvested by centrifugation, and stored at −80° C. for purification.
Expressed full-length human Flag- and His-tagged CARM1 protein was purified from cell paste by anti-flag M2 affinity chromatography with resin equilibrated with buffer containing 20 mM Tris, 150 mM NaCl, 5% glycerol, pH 7.8. Column was washed with 500 mM NaCl in buffer A and Flag-CARM1-His was eluted with 200 ug/ml FLAG peptide in buffer A. Pooled fractions were dialyzed in 20 mM Tris, 150 mM NaCl, 5% glycerol and 1 mM DTT, pH 7.8.
The assays were all performed in a buffer consisting of 20 mM Bicine (pH=7.6), 1 mM TCEP, 0.005% BSG, and 0.002% Tween 20, prepared on the day of use. Compounds in 100% DMSO (1 ul) were spotted into a polypropylene 384-well V-bottom plates (Greiner) using a Platemate Plus outfitted with a 384-channel head (Thermo Scientific). DMSO (1 ul) was added to Columns 11, 12, 23, 24, rows A-H for the maximum signal control and 1 ul of SAH, a known product and inhibitor of CARM1, was added to columns 11, 12, 23, 24, rows I-P for the minimum signal control. A cocktail (40 ul) containing the CARM1 enzyme was added by Multidrop Combi (Thermo-Fisher). The compounds were allowed to incubate with CARM1 for 30 min at room temperature, then a cocktail (10 ul) containing ^3H-SAM and peptide was added to initiate the reaction (final volume=51 ul). The final concentrations of the components were as follows: CARM1 was 0.25 nM, ^3H-SAM was 30 nM, peptide was 250 nM, SAH in the minimum signal control wells was 1 mM, and the DMSO concentration was 2%. The assays were stopped by the addition of non-radiolabeled SAM (10 ul) to a final concentration of 300 uM, which dilutes the ^3H-SAM to a level where its incorporation into the peptide substrate is no longer detectable. 50 ul of the reaction in the 384-well polypropylene plate was then transferred to a 384-well Flashplate and the biotinylated peptides were allowed to bind to the streptavidin surface for at least 1 hour before being washed once with 0.1% Tween20 in a Biotek ELx405 plate washer. The plates were then read in a PerkinElmer TopCount plate reader to measure the quantity of ^3H-labeled peptide bound to the Flashplate surface, measured as disintegrations per minute (dpm) or alternatively, referred to as counts per minute (cpm).
where dpm=disintegrations per minute, cmpd=signal in assay well, and min and max are the respective minimum and maximum signal controls.
where top and bottom are the normally allowed to float, but may be fixed at 100 or 0 respectively in a 3-parameter fit. The Hill Coefficient normally allowed to float but may also be fixed at 1 in a 3-parameter fit. Y is the % inhibition and X is the compound concentration.

Human CARM1 (PRMT4), sequence (Q86X55 other isoform, or with tags, fused parts or gaps isoform Q86X55-1): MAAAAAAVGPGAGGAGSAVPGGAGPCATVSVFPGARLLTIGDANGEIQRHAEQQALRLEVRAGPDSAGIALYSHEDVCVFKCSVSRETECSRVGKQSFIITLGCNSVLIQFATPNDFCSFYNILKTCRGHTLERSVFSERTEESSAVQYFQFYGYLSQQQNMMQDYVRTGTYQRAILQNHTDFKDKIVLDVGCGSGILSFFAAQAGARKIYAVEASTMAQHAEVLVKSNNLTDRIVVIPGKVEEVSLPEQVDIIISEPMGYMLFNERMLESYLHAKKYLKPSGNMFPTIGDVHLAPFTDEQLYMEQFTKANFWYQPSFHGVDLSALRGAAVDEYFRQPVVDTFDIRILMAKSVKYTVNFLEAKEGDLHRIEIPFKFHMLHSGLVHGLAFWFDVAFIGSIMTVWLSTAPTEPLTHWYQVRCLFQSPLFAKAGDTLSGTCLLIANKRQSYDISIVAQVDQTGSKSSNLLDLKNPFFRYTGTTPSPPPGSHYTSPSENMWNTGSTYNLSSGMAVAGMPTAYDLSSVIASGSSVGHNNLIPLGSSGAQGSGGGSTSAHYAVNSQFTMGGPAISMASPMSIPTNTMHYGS

Row | SMILES | IC50
1 | CNCC(O)COc1cccc(-c2nc(N[C@@H]3CC[C@@H](O)C3)cc(-c3c(C)noc3C)n2)c1 (stereo partly drawn) [Example 44-1a] | < 100 nM
2 | CNC[C@@H](O)COc1ccc(Cl)c(-c2nc(N[C@H]3CCN(C4CC4)C[C@H]3F)c(C)c(-c3c(C)noc3C)n2)c1 [Example 44-3] | < 100 nM
3 | CNCC(O)COc1cc(Cl)cc(-c2nc(N[C@H]3CCOC3)c(C)c(-c3ccncc3)n2)c1 (stereo partly drawn) [Example 45-1] | < 100 nM
4 | CNCC(O)COc1cccc(-c2nc(NC3CC(C(=O)OC)C3)cc(-c3c(C)noc3C)n2)c1 (stereo not drawn) [Example 45-1a] | < 100 nM
5 | CNCC(O)COc1ccc(Cl)c(-c2nc(NC3CC4(C3)CN(C(=O)OC)C4)c(C)c(-c3c(C)noc3C)n2)c1 (stereo not drawn) [Example 45-3] | < 100 nM
6 | CNCC(O)COc1cccc(-c2nc(NC3CCOCC3)cc(-c3cc4ccccc4o3)n2)c1 (stereo not drawn) [Example 46-1] | < 100 nM
7 | CNCC(O)COc1ccc(Cl)c(-c2nc(NC3CC(C)N(C(=O)OC)C(C)C3)c(C)c(-c3c(C)noc3C)n2)c1 (stereo not drawn) [Example 46-3] | < 100 nM
8 | CNCC(O)COc1cc(Cl)cc(-c2nc(NC3CCOCC3)c(C)c(-c3c(C)noc3C)n2)c1 (stereo not drawn) [Example 47-1a] | < 100 nM
9 | CNCC(O)COc1cccc(-c2nc(-c3c(C)noc3C)c(C)c(N3CCNC(C(F)F)C3)n2)c1 (stereo not drawn) [Example 47-3] | < 100 nM
10 | CNCC(O)COc1cccc(-c2nc(-c3ccc4c(c3)OCCO4)cc(N(C)CCC#N)n2)c1 (stereo not drawn) [Example 48-1] | < 100 nM
11 | CCN1CCC[C@H]1CNc1nc(-c2cc(OC[C@@H](O)CNC)ccc2Cl)nc(-c2c(C)noc2C)c1C [Example 48-3] | < 100 nM
12 | CNCC(O)COc1cccc(-c2nc(-c3ccc(OC)c(OC)c3)cc(N(C)CCC#N)n2)c1 (stereo not drawn) [Example 49-1] | < 100 nM
13 | CNCC(O)COc1cccc(-c2nc(Nc3cnc(C)nc3)cc(-c3c(C)noc3C)n2)c1 (stereo not drawn) [Example 49-1a] | < 100 nM
14 | CCOC(=O)N1CCC[C@@H]1CNc1nc(-c2cc(OC[C@@H](O)CNC)ccc2Cl)nc(-c2c(C)noc2C)c1C [Example 49-3] | < 100 nM
15 | CNCC(O)COc1cccc(-c2nc(NCCCN3CCCC3=O)cc(-c3cncnc3)n2)c1 (stereo not drawn) [Example 50-1] | < 100 nM
16 | CNCC(O)COc1cccc(-c2nc(-c3c(C)noc3C)cc(N(C)c3cncnc3)n2)c1 (stereo not drawn) [Example 50-1a] | < 100 nM
17 | CNCC(O)COc1cccc(-c2nc(-c3c(C)noc3C)cc(N(C)c3cnc(OC)nc3)n2)c1 (stereo not drawn) [Example 51-1a] | < 100 nM
18 | CNCC(O)COc1cccc(-c2nc(NC3CCOCC3)cc(-c3cccc4ncccc34)n2)c1 (stereo not drawn) [Example 53-1] | < 100 nM
19 | CNCC(O)COc1cccc(-c2nc(SC)c(C)c(-c3c(C)noc3C)n2)c1 (stereo not drawn) [Example 53-1a] | < 100 nM

Row | SMILES | IC50
20 | CNC[C@H](O)COc1ccc(Cl)c(-c2nc(N[C@H]3C[C@H](OC)C3)c(C)c(-c3c(C)noc3C)n2)c1 [Example 53-3] | < 100 nM
21 | Cc1noc(C)c1-c1nc(-c2cccc(OCC(O)CN)c2)nc(NC2CCOCC2)c1C (stereo not drawn) [Example 54-1a] | < 100 nM
22 | CNC[C@H](O)COc1ccc(Cl)c(-c2nc(N[C@H]3C[C@@H](OC)C3)c(C)c(-c3c(C)noc3C)n2)c1 [Example 54-3] | < 100 nM
23 | CNCC(O)COc1cccc(-c2nc(-c3cnc4[nH]ccc4c3)cc(N(C)C3CCOCC3)n2)c1 (stereo not drawn) [Example 55-1] | < 100 nM
24 | CNC[C@H](O)COc1cccc(-c2nc(NC3CCOCC3)c(C)c(-c3c(C)noc3C)n2)c1 [Example 55-1a] | < 100 nM
25 | CNC[C@H](O)COc1ccc(Cl)c(-c2nc(-c3c(C)noc3C)c(C)c(N3CC4(CCN(C5CC5)CC4)C3)n2)c1 [Example 55-3] | < 100 nM
26 | CNCC(O)COc1cccc(-c2nc(-c3ccc(S(C)(=O)=O)cc3)cc(N(C)CCC#N)n2)c1 (stereo not drawn) [Example 56-1] | < 100 nM
27 | CNC[C@@H](O)COc1cccc(-c2nc(NC3CCOCC3)c(C)c(-c3c(C)noc3C)n2)c1 [Example 56-1a] | < 100 nM
28 | CCOC(=O)N1CCOC[C@@H]1CNc1nc(-c2cc(OC[C@H](O)CNC)ccc2Cl)nc(-c2c(C)noc2C)c1Cl [Example 56-3] | < 100 nM
29 | CNCC(O)COc1cccc(-c2nc(-c3ccnc(OC)c3)cc(N(CCOC)CCOC)n2)c1 (stereo not drawn) [Example 57-1] | < 100 nM
30 | CNCC(O)COc1cccc(-c2nc(-c3c(C)noc3C)c(C)c(N3CCS(=O)(=O)CC3)n2)c1 (stereo not drawn) [Example 57-1a] | < 100 nM
31 | CNCC(O)COc1ccc(Cl)c(-c2nc(N[C@H]3CCC[C@@H](OC)C3)c(C)c(-c3c(C)noc3C)n2)c1 (stereo partly drawn) [Example 57-3] | < 100 nM
32 | CNC[C@H](O)COc1ccc(Cl)c(-c2nc(NC[C@H]3COCCN3C(=O)OC)c(C)c(-c3c(C)noc3C)n2)c1 [Example 58-3] | < 100 nM
33 | CNCC(O)COc1cccc(-c2nc(NC3CCS(=O)(=O)CC3)c(C)c(-c3c(C)noc3C)n2)c1 (stereo not drawn) [Example 59-1a] | < 100 nM
34 | CNCC(O)COc1cccc(-c2nc(NC3CCS(=O)(=O)CC3)cc(-c3c(C)noc3C)n2)c1 (stereo not drawn) [Example 60-1a] | < 100 nM
35 | CNCC(O)COc1cccc(-c2nc(-c3c(C)noc3C)cc(N(C)c3cnc(C)nc3)n2)c1 (stereo not drawn) [Example 61-1a] | < 100 nM
36 | CNCC(O)COc1cccc(-c2nc(N[C@@H]3CCOC3)c(C)c(-c3c(C)noc3C)n2)c1 (stereo partly drawn) [Example 66-1a] | < 100 nM
37 | CNCC(O)COc1cccc(-c2nc(N[C@H]3C[C@@](C)(O)C3)cc(-c3c(C)noc3C)n2)c1 (stereo partly drawn) [Example 67-1a] | < 100 nM
38 | CNCC(O)COc1cccc(-c2nc(-c3c(C)noc3C)cc(N3CCN(CCF)CC3)n2)c1 (stereo not drawn) [Example 68-1a] | < 100 nM

More lines, now with the values ahead:

Row | IC50 | SMILES
39 | < 100 nM | CNCC(O)COc1cccc(-c2nc(-c3ccc4c(c3)OCCO4)cc(N(C)C3CCOCC3)n2)c1 (stereo not drawn) [Example 59-1]
40 | < 100 nM | CCOC(=O)N1CCOC[C@H]1CNc1nc(-c2cc(OC[C@@H](O)CNC)ccc2F)nc(-c2c(C)noc2C)c1C [Example 59-3]
41 | < 100 nM | CNCC(O)COc1cccc(-c2nc(NCCCN3CCCC3=O)cc(-c3ccnc(OC)c3)n2)c1 (stereo not drawn) [Example 60-1]
42 | < 100 nM | CCOC(=O)N1CCOC[C@H]1CNc1nc(-c2cc(OC[C@H](O)CNC)ccc2F)nc(-c2c(C)noc2C)c1C [Example 60-3]
43 | < 100 nM | CCOC(=O)N1CCOC[C@@H]1CNc1nc(-c2cc(OC[C@@H](O)CNC)ccc2F)nc(-c2c(C)noc2C)c1C [Example 61-3]
44 | < 100 nM | CNCC(O)COc1cccc(-c2nc(-c3ccc4c(c3)OCCO4)cc(N(CCOC)CCOC)n2)c1 (stereo not drawn) [Example 62-1]
45 | < 100 nM | CCOC(=O)N1CCOC[C@@H]1CNc1nc(-c2cc(OC[C@H](O)CNC)ccc2F)nc(-c2c(C)noc2C)c1C [Example 62-3]
46 | < 100 nM | CNC[C@H](O)COc1ccc(F)c(-c2nc(N[C@H]3CCN(C(=O)OC)C[C@H]3F)c(C)c(-c3c(C)noc3C)n2)c1 [Example 63-3]
47 | < 100 nM | CNCC(O)COc1cccc(-c2nc(-c3ccc(OC)c(OC)c3)cc(N(CCOC)CCOC)n2)c1 (stereo not drawn) [Example 64-1]
48 | < 100 nM | CNC[C@@H](O)COc1ccc(F)c(-c2nc(N[C@H]3CCN(C(=O)OC)C[C@H]3F)c(C)c(-c3c(C)noc3C)n2)c1 [Example 64-3]
49 | < 100 nM | CNC[C@H](O)COc1ccc(Cl)c(-c2nc(N[C@H]3CCN(C(=O)OC)C[C@H]3F)c(C)c(-c3c(C)noc3C)n2)c1 [Example 65-3]
50 | < 100 nM | CNC[C@H](O)COc1ccc(Cl)c(-c2nc(N[C@@H]3CCN(C(=O)OC)[C@@H](C)C3)c(C)c(-c3c(C)noc3C)n2)c1 [Example 66-3]
51 | < 100 nM | CCS(=O)(=O)N1CCC(Nc2nc(-c3cc(OC[C@@H](O)CNC)ccc3Cl)nc(-c3c(C)noc3C)c2C)CC1 [Example 67-3]
